Measurements published in patent US8017144B2, “Controlled release polymeric compositions of bone growth promoting compounds” (Pfizer Inc., priority 2001, dated 2011).
“And” between values parts separate entries of the source, which are not always exact repeats. Equal entries are not always repeated.

Legend:
[1] = test system: subperiosteum of the femur; test: Rat periosteal injection model; format: in vivo, Male Sprague-Dawley rats; settings: single injection in a polymer formulation, day 15
Procedure: Male Sprague-Dawley rats at 3 weeks of age were used. The rats were anesthetized with isoflurane inhalation ([…]) in a conduction chamber located in a fume hood. The right hindlimb of each rat was shaved and cleaned. A 25 G needle attached with a Hamilton syringe pre-filled with testing solution was used for the local injection. The solution was injected onto the subperiosteum of the anterior, mid-diaphyseal region of femur in a volume of 5 to 10 ul for various days. On day 15, the rats were sacrificed and the femurs were collected for analysis. (See, e.g., M. E. Joyce, A. B. Roberts, M. B. Sporn and M. Bolander, “Transforming growth factor-β and the initiation of chondrogenesis and osteogenesis in the rat femur,” The Journal of Cell Biology 110:2195-2207 (1990).) On day one, the right femurs of male Sprague-Dawley rats received single injection of vehicle or test compound in a polymer formulation. The test compound was the sodium salt of (3-(((4-tert-butyl-benzyl)-(pyridine-3-sulfonyl)-amino)-methyl)-phenoxy)-acetic acid. On day 15, all rats were sacrificed and the right femurs were collected for analysis. Periosteal bone induction was assessed by using radiography and dual-energy X-ray absorptiometry (DEXA).

[2] = test system: 1.5 cm segmental defect in the midulna; test: Dog ulnar segmental defect model; format: in vivo, dogs
Text: The ulnar segmental defect model was used to test the efficacy of a single dose of the test compound (which was the sodium salt of (3-(((4-tert-butyl-benzyl)-(pyridine-3-sulfonyl)-amino)-methyl)-phenoxy)-acetic acid) in a PLGH formulation ([…]). The protocol was modified as follows: With animals under general anesthesia, the foreleg was prepped and draped in sterile fashion. A lateral incision approximately 10 cm in length was made and the ulna was exposed extraperiostally. Periosteum was cut and moved to the proximal and distal parts of the incision. Then a 1.5 cm segmental defect was made in the midulna using a pendular saw. The radius and the remaining interosseal membrane were left intact. The defect site was irrigated with saline to remove bone debris. The site was then filled with test compound in a slow-release matrix formulation, as described above. The dogs were divided into the following groups.
Radiographs of the forelimbs were obtained immediately following surgery and every two weeks thereafter until the termination of the study. Radiographs were graded on a 0 to 6 scale (Table 2).

[3] = test system: osteotomy on the distal portion of the dog tibia; test: Canine tibial osteotomy model; format: in vivo, Beagle male dogs; settings: RG502H/NMP, 8 weeks, sodium salt
Text: Normal fracture healing usually represents a biologically optimum healing process, as a result detecting an acceleration of healing in pre-clinical models that heal rapidly is both difficult and challenging. The test compound (which was the sodium salt of (3-(((4-tert-butyl-benzyl)-(pyridine-3-sulfonyl)-amino)-methyl)-phenoxy)-acetic acid) in a PLGH formulation (50% 50:50 PLGH (RG502H Grade)/50% NMP) was studied to determine its effect on accelerating healing in a rapidly healing canine osteotomy model. Enhancement of healing in this model supports potential applications of the test compound to heal normal fractures in humans since humans tend to heal fractures more slowly.
Beagle male dogs 12±3 kg, 14 months of age were used for the study. Dogs were divided into four groups of three to four animals each.
With animals under general anesthesia, the hindleg was prepped and draped in sterile fashion. A lateral incision approximately 4 cm in length was made. Surgical osteotomy was made on the distal portion of the dog tibia using a Gigli saw. The defect was stabilized using an AO plate. The fibula and the remaining interosseal membrane was left intact and the defect site was irrigated with saline to remove bone debris. The site was then filled with carrier as described above. Following surgery, animals were allowed full weight-bearing activity, and water and food ad libitum. […]

right femoral fracture = test: Rat femoral transverse fracture model; format: in vivo, Male Sprague-Dawley rats; settings: single percutaneous injection to fracture site immediately after surgery; 50 mg/ml, 300 ul, 15 mg/rat; day 21
Procedure: Male Sprague-Dawley rats at 3 to 4 months of age were used. The animals were anesthetized with ketamine and xylazine at doses of 100 and 10 mg/kg, respectively. The right hindlimb of each rat was shaved and cleaned. A 1 cm incision was made just lateral to the patella and the femoral condyle was exposed. A Kirschner wire (0.045″ in diameter) was introduced into the intramedullary canal through the intercondylar portion to serve as an internal stabilization. The muscle incision was closed with Vicryl® and the skin incision was closed with stainless steel wound clips. The mid-diaphysis of the pinned femur was fractured by means of a three-point bending device driven by a dropped weight. The rats were permitted full weight-bearing and unrestricted activity after awakening from anesthesia. The test agents were administered on various days after surgery by percutaneous injection onto the fracture site. The animals were sacrificed on various days after treatment and the femurs were collected for analysis. Fracture healing was evaluated by using radiography, histomorphometry and biomechanical test. (See, e.g., F. Bonnarens and T. A. Einhorn, “Production of a standard closed fracture in laboratory animal bone,” Journal of Orthopaedic Research 2:97-101 (1984).)
Male Sprague-Dawley rats at 3 to 4 months of age were subjected to right femoral fracture. […]

Question: With `CC(C)(C)c1ccc(CN(Cc2cccc(OCC(=O)[O-])c2)S(=O)(=O)c2cccnc2)cc1.[Na+]` [test compound, (3-(((4-tert-butyl-benzyl)-(pyridine-3-sulfonyl)-amino)-methyl)-phenoxy)-acetic acid, sodium salt] as the compound, how does the “bone mineral content (BMC) of the injected region of the femur by DEXA vs vehicle” value [1] read?
Answer: The value was “significantly increased”.

Question: And the “periosteal bone induction by radiography” value ([1]; anterior aspect of right femur)?
Answer: The value was “new bone formation”.

Question: And the “efficacy in formulation containing RG503H Grade” value ([2]; 50 mg/ml in 50% 50:50 PLGH (RG503H Grade)/50% NMP)?
Answer: Its value is “did not work well”.

Question: And the “union compared to RG502H Grade formulation” value ([2]; 50 mg/ml in 50% 50:50 PLGH (RG503H Grade)/50% NMP, union achieved in some dogs)?
Answer: Its value is “delayed”.

Question: What about the “treated animals healed, overall” value ([2]; all treated groups vs none for vehicle controls) of the same compound?
Answer: The value was 70-75%.

Question: And the “remodeling of newly formed bone” value ([2]; by week 24, slow release matrix formulation RG502H/NMP)?
Answer: The value was “remodeled back to the same shape and size as the contralateral bone”.

Question: And the “Complete rebridging/number of dogs” value ([2]; group B: 50 mg (1 ml of 50 mg/ml formulation), RG502H/NMP)?
Answer: The value was 2/4.

Question: And the “Complete rebridging/number of dogs” value ([2]; group C: 10 mg (1 ml of 10 mg/ml formulation), RG502H/NMP)?
Answer: The value was 9/12.

Question: What about the Radiographic response ([2]; group C: 10 mg (1 ml of 10 mg/ml formulation), RG502H/NMP, two dogs) of the same compound?
Answer: The Radiographic response was “did not respond”.

Question: And the “Complete rebridging/number of dogs” value ([2]; group D: 10 mg (0.2 ml of 50 mg/ml formulation), RG502H/NMP)?
Answer: The value was 3/4.

Question: What about the “rebridgement of defect after a single application” value ([2]; groups B, C and D, slow release matrix formulation RG502H/NMP) of the same compound?
Answer: The value was “complete rebridgement”.

Question: And the Rebridging/number of dogs ([3]; group C: 5 mg (0.5 ml of 10 mg/ml formulation))?
Answer: Its Rebridging/number of dogs is “Four out of four and 4/4”.

Question: What about the Rebridging/number of dogs ([3]; group D: 25 mg (0.5 ml of 50 mg/ml formulation)) of the same compound?
Answer: The Rebridging/number of dogs was “the other three showed significant healing and 3/4”.

Question: What about the “calluses as assessed by radiography vs vehicle” value (right femoral fracture) of the same compound?
Answer: The value was “larger and denser calluses”.
